From patent US12691101B2, “Compound and method for preventing or treating of respiratory diseases comprising the same as an active ingredient” (YONSEI UNIVERSITY, UNIVERSITY - INDUSTRY FOUNDATION (UIF), priority 2019, dated 2026)

Key:
[1] = molecular target: T1, SLC26A3 (Homo sapiens, UniProt P40879); test: Cl^−/HCO3^− exchange in CHO-K1 cells expressing SLC26A3; format: cell-based; details: weakly inhibited
T1 construct: expressed in transfected cells; host or cells: CHO-K1
Method: (A) The inhibition of mouse pendrin (mPDS)-mediated Cl^−/I^− exchange activity by F56 was measured in CHO-K1 cells (mean±S.E., n=5). The indicated concentration of F56 was pretreated for 10 minutes. (B) Summary of dose-response for inhibition of the human pendrin (hPDS)-mediated (closed circle, FIG. (a), C) and mPDS-mediated (open circle) Cl^−/I^− exchange activity. (C-F) Representative traces of intracellular pH in CHO-K1 cells expressing SLC26A3, SLC26A6, SLC26A7 and SLC26A9 were shown. The application of Cl^− free solution induced intracellular alkalization by Cl^−/HCO3^− exchange. The indicated concentration of F56 was pretreated for 10 minutes. (G) the effect of F56 (100 μM) on the CFTR chloride channel activity was measured in FRT cells expressing human CFTR. The CFTR current was activated by 20 μM forskolin and was inhibited by 10 μM CFTRinh-172. (H) The effect of F56 (100 μM) on the AN01 chloride channel activity was measured in FRT cells expressing human AN01. Before 10 minutes prior to AN01 activation by 100 μM ATP, F56 was added. (Right) Peak current summary (mean±S.E., n=3). (I) The effect of F56 on the hERG (Kv11.1) potassium channel activity was measured in HEK293T cells expressing human Kv11.1 (mean±S.E., n=4). […] (J) The effect of F56 on the 5-HT2A channel activity was measured in FRT cells expressing human 5-HT2A (mean±S.E., n=4). […]

[2] = system: SCN^− transport; test: Epithelial SCN^− transport in IL-4-treated HNE cells; format: cell-based, human; details: 30 μM, 30 minutes
Method: Nasal epithelial cells were plated on a transwell permeable supporter and cultured in ALI (air-liquid interface) for 14 days. After completely differentiated epithelial cells were cultured with IL-4 (Invitrogen, 10 ng/mL) for 48 hours, F56 (30 μM) or vehicle was added for 30 minutes. The transwell insert having cells was washed with PBS and the basal side was treated with 1 mL PBS containing 10 mM glucose and 5 μCi S^14CN (total concentration SCN^−: 86 μM). The apical side of the transwell was filled with 0.5 mL PBS containing 5 μM amiloride to block epithelial sodium. Subsequently, the apical fluid was collected every 5 minutes and placed in scintillation vials for evaluation of radioactivity.

[3] = system: LPS-induced acute lung injury mice; test: LPS-induced ALI in mouse model; format: in vivo
Method: Mice were slightly anesthetized by isoflurane inhalation (Abbott Laboratory), and were maintained in a supine position with the head raised. LPS (Escherichia coli, 0111: B4, Sigma) (10 mg/kg) in 50 μL PBS was administered by intranasal (i.n.) inhalation. As the control group, 50 μL sterile PBS was intranasally provided. With the aid of a microsyringe from Hamilton, the administration solution was gradually released into the nostrils. In case of the pretreatment model, F56 (10 mg/kg) in 50 μL DMSO was intraperitoneally (i.p) administered before 1 hour of LPS inhalation. In case of the post-treatment model, two doses of F56 were administered at 6 hours and 12 hours after LPS inhalation. The mice of the pretreatment group were euthanized and in 48 hours after LPS inhalation, the lung was harvested. In the post-treatment model, euthanasia and sample collection occurred 24 hours after LPS administration. For SCN^− experiment, after F56 treatment, […]
All mice were euthanized with fetal excessive amount of ketamine and xylazine. BALF was obtained by tracheal cannula using 1 mL sterile saline solution. BALF was centrifuged (4° C., 3000 rpm, 10 minutes) and the supernatant was stored at −80° C. for an additional analysis. The cell pellet was recomposed in 100 μL PBS, and used for the number of cells and cytospin sample. The total number of cells of each sample was determined using a hemocytometer (Marienfield), according to the manufacturer's protocol. Each sample in a 90 μL split amount was transferred to a slide chamber, and then the slide was inserted into the cytospin with outward facing. The slide was centrifuged at 800 rpm for 5 minutes, and then removed from the cell centrifuge, and dried before staining. The cytospin was prepared with a cell centrifuge (Shandon Cytospin 4 cytocentrifuge, Thermo Scientific, Waltham, MA, USA) and stained with Diff-Quik Stain Set (Dade Behring, Newark, DE, USA) to evaluate inflammation. The protein concentration of BAL supernatant was measured using BCA analysis (Thermo Fischer Scientific). 2 microliters of each sample and 198 μL of a working reagent were pipetted in a microplate well and completely mixed in a plate shaker for […]. After culturing at 37° C. for 30 minutes, the plate was cooled and the absorbance was read at 562 nm in a spectrophotometer.
The right lung was isolated and the pulmonary vasculature structure was flushed with saline solution under low pressure and stored at −80° C. before protein extraction. The left lung was inflated via tracheostomy with low-meting agarose (4%) in PBS at 25 cm H2O pressure until the pleural margin was sharpened. Then, the lung was excised and fixed overnight in 10% formaldehyde in PBS and embedded in paraffin for 5 μm sections. The left lung section was stained with H&E and subjectively evaluated with an optical microscope. Histopathology was reviewed in a blind method by two qualified researchers. Five easily identifiable pathological processes were scored using the weighted scale presented in the official ATS workshop report. Lung sections were processed using anti-rabbit SLC26A4 (ab98091, abcam) antibody for immunohistochemistry.
In the lung lysates, the level of macrophage inflammatory protein (MIP-2), interleukin-1β (IL-1β […] and tumor necrosis factor α (TNF-α) was measured using an ELISA kit (Millipore), according to the manufacturer's instructions.
The lung tissue was harvested and dissolved in a homogenization buffer (PRO-PREP™ extraction solution, iNtRON Biotechnology). The sample was centrifuged at 4° C. for 30 minutes at 13000 g. The supernatant protein concentration was determined by BCA analysis (Thermo Fisher Scientific). The same amount of protein was separated by SDS/PAGE and transferred to a nitrocellulose membrane. […]

[4] = post-treatment 10 mg/kg i.p. at 6 and 12 hours after LPS, 24 hours after LPS
[5] = pretreatment 10 mg/kg i.p. 1 hour before LPS, 48 hours after LPS, versus vehicle

T1 sequence (P40879 whole entry, species assumed): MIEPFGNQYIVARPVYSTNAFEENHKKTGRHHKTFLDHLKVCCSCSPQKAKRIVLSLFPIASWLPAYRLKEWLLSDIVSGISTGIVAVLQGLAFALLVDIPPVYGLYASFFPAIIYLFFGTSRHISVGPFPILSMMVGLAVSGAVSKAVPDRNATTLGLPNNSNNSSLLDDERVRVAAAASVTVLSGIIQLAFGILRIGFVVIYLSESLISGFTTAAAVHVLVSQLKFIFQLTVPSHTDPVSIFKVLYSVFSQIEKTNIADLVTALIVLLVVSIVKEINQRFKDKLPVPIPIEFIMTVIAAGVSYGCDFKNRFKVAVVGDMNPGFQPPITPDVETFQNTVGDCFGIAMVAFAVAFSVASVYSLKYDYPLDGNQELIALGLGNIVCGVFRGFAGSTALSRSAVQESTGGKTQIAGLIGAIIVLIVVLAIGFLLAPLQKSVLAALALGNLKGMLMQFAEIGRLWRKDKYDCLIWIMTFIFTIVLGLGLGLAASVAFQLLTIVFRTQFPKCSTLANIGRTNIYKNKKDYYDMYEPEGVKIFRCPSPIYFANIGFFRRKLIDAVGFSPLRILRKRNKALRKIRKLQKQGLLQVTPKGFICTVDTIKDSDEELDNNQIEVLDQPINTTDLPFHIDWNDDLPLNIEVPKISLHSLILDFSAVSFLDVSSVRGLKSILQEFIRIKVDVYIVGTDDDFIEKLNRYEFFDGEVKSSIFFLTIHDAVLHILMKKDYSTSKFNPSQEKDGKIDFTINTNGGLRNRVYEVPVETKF

For `CC(C)(C)c1ccc(C2=NC(=Cc3cccs3)C(=O)O2)cc1` [F56, 2-(4-(tert-butyl)phenyl)-4-(thiophen-2-ylmethylene)oxazol-5(4H)-one], the IC50 [1] was > 100 µM, the “SCN^− concentration on the apical surface” value [2] was “inhibited” and the “level of pro-inflammatory cytokine in lung lysates (IL-1β, MIP-2, IL-6, TNF-α)” value ([3]; F56 pretreated versus vehicle (DMSO) after LPS) was “reduced”. For the same molecule, the “Phospho-Iκ expression in lung lysates” value ([3]; F56 treatment before LPS) was “significantly reduced”, the BALF protein concentration [3, 4] was “considerably reduced” and the “BALF total cell number” value [3, 4] was “considerably reduced”. For the same molecule, the lung injury score [3, 4] was “considerably reduced”, the “BAL protein concentration level” value [3, 5] was “reduced” and the “BAL total cell number” value [3, 5] was “reduced”. The lung injury score [3, 5] was “significantly reduced”.
